Experimental data from patent publication US8557805B2, “Fused ring compound and use thereof” (Takeda Pharmaceutical Company Limited, priority 2008, dated 2013).

| Compound | melting point [°C] |
| --- | --- |
| CS(=O)(=O)c1ccc(Oc2cc(OC3CCOCC3)c3[nH]c(C4=NCC(CC(N)=O)S4)cc3c2)cc1 (centres unmarked) [Example 5, 2-(2-{5-[4-(Methylsulfonyl)phenoxy]-7-(tetrahydro-2H-pyran-4-yloxy)-1H-indol-2-yl}-4,5-dihydro-1,3-thiazol-5-yl)acetamide] | 176 to 177 |
| CS(=O)(=O)c1ccc(Oc2cc(OC3CCOCC3)c3[nH]c(C4=NCC(CCO)S4)cc3c2)nc1 (centres unmarked) [Example 13, 2-{2-[5-{[5-(Methylsulfonyl)pyridin-2-yl]oxy}-7-(tetrahydro-2H-pyran-4-yloxy)-1H-indol-2-yl]-4,5-dihydro-1,3-thiazol-5-yl}ethanol] | 165 to 166 |
| CS(=O)(=O)c1ccc(Oc2cc(OC3CCOCC3)c3[nH]c(C4=NCC(CC(N)=O)S4)cc3c2)nc1 (centres unmarked) [Example 16, 2-{2-[5-{[5-(Methylsulfonyl)pyridin-2-yl]oxy}-7-(tetrahydro-2H-pyran-4-yloxy)-1H-indol-2-yl]-4,5-dihydro-1,3-thiazol-5-yl}acetamide] | 188 to 190 |
| CS(=O)(=O)c1ccc(Oc2cc(OC3CCOCC3)c3[nH]c(C4=NCC(CC(=O)N5CC(O)C5)S4)cc3c2)nc1 (centres unmarked) [Example 18, 1-({2-[5-{[5-(Methylsulfonyl)pyridin-2-yl]oxy}-7-(tetrahydro-2H-pyran-4-yloxy)-1H-indol-2-yl]-4,5-dihydro-1,3-thiazol-5-yl}acetyl)azetidin-3-ol] | 180 to 181 |
| CS(=O)(=O)Cc1ccc(Oc2cc(OC3CCOCC3)c3[nH]c(C4=NCC(CC(N)=O)S4)cc3c2)cn1 (centres unmarked) [Example 26, 2-{2-[5-({6-[(Methylsulfonyl)methyl]pyridin-3-yl}oxy)-7-(tetrahydro-2H-pyran-4-yloxy)-1H-indol-2-yl]-4,5-dihydro-1,3-thiazol-5-yl}acetamide] | 164 to 167 |
| CNC(=O)CC1CN=C(c2cc3cc(Oc4ccc(CS(C)(=O)=O)nc4)cc(OC4CCOCC4)c3[nH]2)S1 (centres unmarked) [Example 27, N-Methyl-2-{2-[5-({6-[(methylsulfonyl)methyl]pyridin-3-yl}oxy)-7-(tetrahydro-2H-pyran-4-yloxy)-1H-indol-2-yl]-4,5-dihydro-1,3-thiazol-5-yl}acetamide] | 157 to 158 |
| CS(=O)(=O)c1ccc(Oc2cc(OC3CCOCC3)c3[nH]c(C4=NCC(CC(N)=O)S4)cc3c2)cn1 (centres unmarked) [Example 31, 2-{2-[5-{[6-(Methylsulfonyl)pyridin-3-yl]oxy}-7-(tetrahydro-2H-pyran-4-yloxy)-1H-indol-2-yl]-4,5-dihydro-1,3-thiazol-5-yl}acetamide] | 136 to 138 |
| CNC(=O)CC1CN=C(c2cc3cc(Oc4ccc(S(C)(=O)=O)nc4)cc(OC4CCOCC4)c3[nH]2)S1 (centres unmarked) [Example 34, N-methyl-2-{2-[5-{[6-(Methylsulfonyl)pyridin-3-yl]oxy}-7-(tetrahydro-2H-pyran-4-yloxy)-1H-indol-2-yl]-4,5-dihydro-1,3-thiazol-5-yl}acetamide] | 143 to 144 |
| CC(C)(O)CNC(=O)CC1CN=C(c2cc3cc(Oc4ccc(S(C)(=O)=O)nc4)cc(OC4CCOCC4)c3[nH]2)S1 (centres unmarked) [Example 39, N-(2-Hydroxy-2-methylpropyl)-2-{2-[5-{[6-(methylsulfonyl)pyridin-3-yl]oxy}-7-(tetrahydro-2H-pyran-4-yloxy)-1H-indol-2-yl]-4,5-dihydro-1,3-thiazol-5-yl}acetamide] | 195 to 196 |
| CC1(CNC(=O)CC2CN=C(c3cc4cc(Oc5ccc(S(C)(=O)=O)nc5)cc(OC5CCOCC5)c4[nH]3)S2)COC1 (centres unmarked) [Example 40, N-[(3-Methyloxetan-3-yl)methyl]-2-{2-[5-{[6-(methylsulfonyl)pyridin-3-yl]oxy}-7-(tetrahydro-2H-pyran-4-yloxy)-1H-indol-2-yl]-4,5-dihydro-1,3-thiazol-5-yl}acetamide] | 189 to 190 |
| CS(=O)(=O)c1ccc(Oc2cc(OC3CCOCC3)c3[nH]c(C4=NCC(CC(=O)NCCO)S4)cc3c2)cn1 (centres unmarked) [Example 44, N-(2-Hydroxyethyl)-2-{2-[5-{[6-(methylsulfonyl)pyridin-3-yl]oxy}-7-(tetrahydro-2H-pyran-4-yloxy)-1H-indol-2-yl]-4,5-dihydro-1,3-thiazol-5-yl}acetamide] | 157 to 158 |
| CS(=O)(=O)c1ccc(Oc2ccc3[nH]c(C4=NCC(CC(=O)O)S4)cc3c2)cn1 (centres unmarked) [Example 52, [2-(5-{[6-(Methylsulfonyl)pyridin-3-yl]oxy}-1H-indol-2-yl)-4,5-dihydro-1,3-thiazol-5-yl]acetic acid] | 205 to 208 |

The next lines start with the values.

| melting point [°C] | Compound |
| --- | --- |
| 230 to 232 | CCc1cc(Oc2ccc(S(C)(=O)=O)nc2)cc2cc(C3=NCC(CC(=O)O)S3)[nH]c12 (centres unmarked) [Example 60, [2-(7-Ethyl-5-{[6-(methylsulfonyl)pyridin-3-yl]oxy}-1H-indol-2-yl)-4,5-dihydro-1,3-thiazol-5-yl]acetic acid] |
| 189 to 190 | CCc1cc(Oc2ccc(S(C)(=O)=O)nc2)cc2cc(C3=NCC(CC(=O)NC)S3)[nH]c12 (centres unmarked) [Example 62, 2-[2-(7-Ethyl-5-{[6-(methylsulfonyl)pyridin-3-yl]oxy}-1H-indol-2-yl)-4,5-dihydro-1,3-thiazol-5-yl]-N-methylacetamide] |
| 227 to 229 | CCNC(=O)CC1CN=C(c2cc3cc(Oc4ccc(S(C)(=O)=O)nc4)cc(CC)c3[nH]2)S1 (centres unmarked) [Example 63, N-Ethyl-2-[2-(7-ethyl-5-{[6-(methylsulfonyl)pyridin-3-yl]oxy}-1H-indol-2-yl)-4,5-dihydro-1,3-thiazol-5-yl]acetamide] |
| 190 to 191 | CN(C)C(=O)CC1CN=C(c2cc3cc(Oc4ccc(S(C)(=O)=O)nc4)ccc3[nH]2)S1 (centres unmarked) [Example 64, N,N-Dimethyl-2-[2-(5-{[6-(methylsulfonyl)pyridin-3-yl]oxy}-1H-indol-2-yl)-4,5-dihydro-1,3-thiazol-5-yl]acetamide] |
| 174 to 175 | COCCNC(=O)CC1CN=C(c2cc3cc(Oc4ccc(S(C)(=O)=O)nc4)ccc3[nH]2)S1 (centres unmarked) [Example 66, N-(2-Methoxyethyl)-2-[2-(5-{[6-(methylsulfonyl)pyridin-3-yl]oxy}-1H-indol-2-yl)-4,5-dihydro-1,3-thiazol-5-yl]acetamide] |
| 168 to 169 | CS(=O)(=O)c1ccc(Oc2ccc3[nH]c(C4=NCC(CC(=O)N5CCOCC5)S4)cc3c2)cn1 (centres unmarked) [Example 68, 5-{[6-(Methylsulfonyl)pyridin-3-yl]oxy}-2-[5-(2-morpholin-4-yl-2-oxoethyl)-4,5-dihydro-1,3-thiazol-2-yl]-1H-indole] |
| 248 to 249 | Cc1cc(Oc2ccc(S(C)(=O)=O)nc2)cc2cc(C3=NCC(CC(=O)O)S3)[nH]c12 (centres unmarked) [Example 71, [2-(7-Methyl-5-{[6-(methylsulfonyl)pyridin-3-yl]oxy}-1H-indol-2-yl)-4,5-dihydro-1,3-thiazol-5-yl]acetic acid] |
| 184 to 186 | Cc1cc(Oc2ccc(S(C)(=O)=O)nc2)cc2cc(C3=NCC(CC(=O)NCC(C)(C)O)S3)[nH]c12 (centres unmarked) [Example 75, N-(2-Hydroxy-2-methylpropyl)-2-[2-(7-methyl-5-{[6-(methylsulfonyl)pyridin-3-yl]oxy}-1H-indol-2-yl)-4,5-dihydro-1,3-thiazol-5-yl]acetamide] |
| 170 to 171 | Cc1cc(Oc2ccc(S(C)(=O)=O)nc2)cc2cc(C3=NCC(CC(=O)NC[C@H](C)O)S3)[nH]c12 (stereo partly drawn) [Example 76, N-[(2S)-2-Hydroxypropyl]-2-[2-(7-methyl-5-{[6-(methylsulfonyl)pyridin-3-yl]oxy}-1H-indol-2-yl)-4,5-dihydro-1,3-thiazol-5-yl]acetamide] |
| 168 to 169 | Cc1cc(Oc2ccc(S(C)(=O)=O)nc2)cc2cc(C3=NCC(CC(=O)NC[C@@H](C)O)S3)[nH]c12 (stereo partly drawn) [Example 77, N-[(2R)-2-Hydroxypropyl]-2-[2-(7-methyl-5-{[6-(methylsulfonyl)pyridin-3-yl]oxy}-1H-indol-2-yl)-4,5-dihydro-1,3-thiazol-5-yl]acetamide] |
| 172 to 173 | CNC(=O)CC1CN=C(c2cc3cc(Oc4ccc(S(C)(=O)=O)nc4)ccc3[nH]2)S1 (centres unmarked) [Example 79] |
